In patent US11613542B2, “Sulfonylureas and sulfonylthioureas as NLRP3 inhibitors” (Inflazome Limited, priority 2017, dated 2023) one finds IC50 data, which are given here for 18 compounds.

The structures appear in SMILES notation. Counter-ions that a name gives are not always drawn.

In assay [1] the target is T1, NLRP3 (Homo sapiens, UniProt Q96P20). The experiment in a line: THP-1 cells pyroptosis assay. In kind it is cell-based. Details: Seed THP-1 cells (25,000 cells/well) containing 1.0 μg/ml LPS; host or cells: THP-1 cells, LPS-primed, nigericin-stimulated. As to conditions: THP-1 cells, 1.0 μg/ml LPS, compound 3 hrs, nigericin 5 μM 1 hr, resazurin readout; read-out: THP IC50. An excerpt: NLRP and Pyroptosis It is well established that the activation of NLRP3 leads to cell pyroptosis and this feature plays an important part in the manifestation of clinical disease (Yan-gang Liu et al., Cell Death &Disease, 2017, 8(2), e2579; Alexander Wree et al., Hepatology, 2014, 59(3), 898-910; Alex Baldwin et al., Journal of Medicinal Chemistry, 2016, 59(5), 1691-171; Ema Ozaki et al., Journal of Inflammation Research, 2015, 8, 15-27; Zhen Xie & Gang Zhao, Neuroimmunology Neuroinflammation, 2014, 1(2), 60-65; Mattia Cocco et al., Journal of Medicinal Chemistry, 2014, 57(24), 10366-10382; T. Satoh et al., Cell Death &Disease, 2013, 4, e644). Therefore, it is anticipated that inhibitors of NLRP3 will block pyroptosis, as well as the release of pro-inflammatory cytokines (e.g. […]) from the cell. THP-1 Cells: Culture and Preparation THP-1 cells (ATCC #TIB-202) were grown in RPMI containing L-glutamine (Gibco #11835) supplemented with imM sodium pyruvate (Sigma #S8636) and penicillin (100 units/ml)/streptomycin (0.1 mg/ml) (Sigma #P4333) in 10% Fetal Bovine Serum (FBS) (Sigma #Fo804). The cells were routinely passaged and grown to confluency (˜10^6 cells/ml). On the day of the experiment, THP-1 cells were harvested and resuspended into RPMI medium (without FBS). The cells were then counted and viability (>90%) checked by Trypan blue (Sigma #T8154). Appropriate dilutions were made to give a concentration of 625,000 cells/ml. To this diluted cell solution was added LPS (Sigma #L4524) to give a […] Final Assay Concentration (FAC). 40 μl of the final preparation was aliquoted into each well of a 96-well plate. The plate thus prepared was used for compound screening. THP-1 Cells Pyroptosis Assay The following method step-by-step assay was followed for compound screening. • 1. Seed THP-1 cells (25,000 cells/well) containing 1.0 μg/ml LPS in 40 μl of RPMI medium (without FBS) in 96-well, black walled, clear bottom cell culture plates coated with poly-D-lysine (VWR #734-0317) • 2. Add […] compound (8 points half-log dilution, with 10 μM top dose) or vehicle (DMSO 0.1% FAC) to the appropriate wells • 3. […] Add 5 μl nigericin (Sigma #N7143) (FAC 5 μM) to all wells • 5. […] At the end of the incubation period, spin plates at 300 xg for 3 mins and remove supernatant • 7. Then add 50 μl of resazurin (Sigma #R7017) (FAC 100μ M resazurin in RPMI medium without FBS) and incubate plates for a further 1-2 hrs at 37° C. and 5% CO2 • 8. Plates were read in an Envision reader at Ex 560 nm and Em 590 nm • 9. IC50 data is fitted to a non-linear regression equation (log inhibitor vs response-variable slope 4-parameters) [table]
In general terms: The colour change of resazurin is a common sign of viable cells or microbes.

Assay [2] concerns the target T1, NLRP3. Nature of the assay: Human whole blood IL1β release assay. In kind it is cell-based. Details: Human whole blood in Li-heparin tubes was obtained from healthy donors; from tissue; host or cells: human whole blood from healthy donors, LPS-primed, nigericin-stimulated. As to conditions: human whole blood, 1 μg/ml LPS, compound 3 hrs, nigericin 10 μM 1 hr, IL-1β AlphaLisa; read-out: HWB IC50. As to the method: Human Whole Blood IL1β Release Assay
For systemic delivery, the ability to inhibit NLRP3 when the compounds are present within the bloodstream is of great importance. For this reason, the NLRP3 inhibitory activity of a number of compounds in human whole blood was investigated in accordance with the following protocol.
Human whole blood in Li-heparin tubes was obtained from healthy donors from a volunteer donor panel. • 1. Plate out 80 μl of whole blood containing 1 μg/ml of LPS in 96-well, clear bottom cell culture plate (Corning #3585) • 2. Add 10 μl compound (8 points half-log dilution with 10 μM top dose) or vehicle (DMSO 0.1% FAC) to the appropriate wells • 3. Incubate for 3 hrs at 37° C., 5% CO2 • 4. Add 10 μl Nigericin (Sigma #N7143) (10 μM FAC) to all wells • 5. Incubate for 1 hr at 37° C., 5% CO2 • 6. At the end of the incubation period, spin plates at 300 xg for 5 mins to pellet cells and remove 20 μl of supernatant and add to 96-well v-bottom plates for IL-1β analysis (note: these plates containing the supernatants can be stored at −80° C. to be analysed at a later date) • 7. IL-1β was measured according to the manufacturer protocol (Perkin Elmer-AlphaLisa IL-1 Kit AL220F-5000) • 8. IC50 data is fitted to a non-linear regression equation (log inhibitor vs response-variable slope 4-parameters)

T1 sequence (Q96P20 whole entry): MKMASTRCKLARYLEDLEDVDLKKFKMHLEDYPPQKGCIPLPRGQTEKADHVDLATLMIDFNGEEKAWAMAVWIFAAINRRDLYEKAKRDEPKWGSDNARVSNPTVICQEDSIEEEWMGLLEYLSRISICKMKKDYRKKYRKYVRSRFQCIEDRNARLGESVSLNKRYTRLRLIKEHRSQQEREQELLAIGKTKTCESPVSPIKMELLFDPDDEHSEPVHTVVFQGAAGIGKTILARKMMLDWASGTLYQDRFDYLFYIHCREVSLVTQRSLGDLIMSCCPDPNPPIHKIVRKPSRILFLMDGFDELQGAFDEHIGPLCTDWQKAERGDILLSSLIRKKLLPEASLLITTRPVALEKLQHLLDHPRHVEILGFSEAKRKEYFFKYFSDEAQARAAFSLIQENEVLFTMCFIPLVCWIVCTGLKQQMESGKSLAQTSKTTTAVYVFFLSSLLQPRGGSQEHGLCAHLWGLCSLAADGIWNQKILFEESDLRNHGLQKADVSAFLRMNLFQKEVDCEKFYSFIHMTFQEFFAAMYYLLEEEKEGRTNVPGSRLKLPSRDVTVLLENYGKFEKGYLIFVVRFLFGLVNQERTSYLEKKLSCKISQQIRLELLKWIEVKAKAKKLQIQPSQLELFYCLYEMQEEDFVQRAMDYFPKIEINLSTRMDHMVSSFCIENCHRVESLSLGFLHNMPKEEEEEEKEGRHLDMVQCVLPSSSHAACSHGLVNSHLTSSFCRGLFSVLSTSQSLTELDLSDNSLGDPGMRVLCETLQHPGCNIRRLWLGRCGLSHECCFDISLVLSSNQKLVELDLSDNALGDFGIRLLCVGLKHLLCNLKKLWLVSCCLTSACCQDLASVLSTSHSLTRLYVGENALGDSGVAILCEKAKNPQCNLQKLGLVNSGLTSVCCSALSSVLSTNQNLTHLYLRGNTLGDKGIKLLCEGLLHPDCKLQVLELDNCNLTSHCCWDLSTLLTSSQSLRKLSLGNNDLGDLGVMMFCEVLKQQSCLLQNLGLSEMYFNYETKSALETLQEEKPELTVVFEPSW

For the compound `CNCCn1ccc(S(=O)(=O)NC(=O)Nc2c3c(cc4c2CCC4)CCC3)n1` [Example 13, N-((1,2,3,5,6,7-Hexahydro-s-indacen-4-yl)carbamoyl)-1-(2-(methylamino)ethyl)-1H-pyrazole-3-sulfonamide], the IC50 (in general, the point on the concentration scale where inhibition reaches its midpoint) in assay [1] was < 640 nM; in assay [2] it was < 800 nM.

Turning to `O=C(Nc1c2c(cc3c1CCC3)CCC2)NS(=O)(=O)c1ccn(C2CNC2)n1` [Example 14, 1-(Azetidin-3-yl)-N-((1,2,3,5,6,7-hexahydro-s-indacen-4-yl)carbamoyl)-1H-pyrazole-3-sulfonamide], the IC50 is < 640 nM in assay [1] and < 3200 nM in assay [2].

As for `C[C@@H](Cn1ccc(S(=O)(=O)NC(=O)Nc2c3c(cc4c2CCC4)CCC3)n1)N(C)C` [Example 18, (S)-1-(2-(Dimethylamino)propyl)-N-((1,2,3,5,6,7-hexahydro-s-indacen-4-yl)carbamoyl)-1H-pyrazole-3-sulfonamide], the results for the IC50 in assay [1] and in assay [2] were < 160 nM and < 800 nM, respectively.

With `CN1CC(Cn2ccc(S(=O)(=O)NC(=O)Nc3c4c(cc5c3CCC5)CCC4)n2)C1` [Example 19, N-((1,2,3,5,6,7-Hexahydro-s-indacen-4-yl)carbamoyl)-1-((1-methylazetidin-3-yl)methyl)-1H-pyrazole-3-sulfonamide], the half-maximal inhibitory concentration (IC50) was < 640 nM in assay [1] and < 3200 nM in assay [2].

With `CN1CCC[C@@H]1Cn1ccc(S(=O)(=O)NC(=O)Nc2c3c(cc4c2CCC4)CCC3)n1` [Example 21, (R)—N-((1,2,3,5,6,7-Hexahydro-s-indacen-4-yl)carbamoyl)-1-((1-methylpyrrolidin-2-yl)methyl)-1H-pyrazole-3-sulfonamide], the results for the IC50 in assay [1] and in assay [2] were < 640 nM and < 800 nM, respectively.

With `CN(C)CCn1cnc(S(=O)(=O)NC(=O)Nc2c3c(cc4c2CCC4)CCC3)c1` [Example 23, 1-(2-(Dimethylamino)ethyl)-N-((1,2,3,5,6,7-hexahydro-s-indacen-4-yl)carbamoyl)-1H-imidazole-4-sulfonamide], the 50% inhibitory concentration (IC50) in assay [1] is < 2560 nM; in assay [2], < 3200 nM.

`CN(C)CCn1cc(S(=O)(=O)NC(=O)Nc2c3c(cc4c2CCC4)CCC3)nn1` [Example 25, 1-(2-(Dimethylamino)ethyl)-N-((1,2,3,5,6,7-hexahydro-s-indacen-4-yl)carbamoyl)-1H-1,2,3-triazole-4-sulfonamide, sodium salt]: the half-inhibitory concentration (IC50) in assay [1] was < 640 nM; in assay [2], < 3200 nM.

As to `COc1cc(-c2ccc3c(c2NC(=O)NS(=O)(=O)c2ccn(CCN(C)C)n2)CCC3)ccn1` [Example 26, 1-(2-(Dimethylamino)ethyl)-N-((5-(2-methoxypyridin-4-yl)-2,3-dihydro-1H-inden-4-yl)carbamoyl)-1H-pyrazole-3-sulfonamide], the concentration for half-maximal inhibition (IC50) in assay [1] was < 160 nM; in assay [2], < 400 nM.

Consider `CN(C)CCn1cnc(S(=O)(=O)NC(=O)Nc2c3c(cc4c2CCC4)CCC3)n1` [Example 27, 1-(2-(Dimethylamino)ethyl)-N-((1,2,3,5,6,7-hexahydro-s-indacen-4-yl)carbamoyl)-1H-1,2,4-triazole-3-sulfonamide], for which the results for the half-maximal inhibitory concentration (IC50) in assay [1] and in assay [2] were < 640 nM and < 800 nM, respectively.

Take `CN(C)CCn1ccc(S(=O)(=O)NC(=O)Nc2c(-c3cccnc3)cc(F)c3c2CCC3)n1` [Example 28, 1-(2-(Dimethylamino)ethyl)-N-((7-fluoro-5-(pyridin-3-yl)-2,3-dihydro-1H-inden-4-yl)carbamoyl)-1H-pyrazole-3-sulfonamide]: the half-inhibitory concentration (IC50) in assay [1] is < 640 nM; in assay [2], < 3200 nM.

On to `COc1cc(-c2cc(F)c3c(c2NC(=O)NS(=O)(=O)c2ccn(CCN(C)C)n2)CCC3)ccn1` [Example 29, 1-(2-(Dimethylamino)ethyl)-N-((7-fluoro-5-(2-methoxypyridin-4-yl)-2,3-dihydro-1H-inden-4-yl)carbamoyl)-1H-pyrazole-3-sulfonamide], for which the results for the IC50 in assay [1] and in assay [2] were < 40 nM and < 400 nM, respectively.

With `CC(C)c1cc(F)cc(-c2cccnc2)c1NC(=O)NS(=O)(=O)c1ccn(CCN(C)C)n1` [Example 30, 1-(2-(Dimethylamino)ethyl)-N-((4-fluoro-2-isopropyl-6-(pyridin-3-yl)phenyl)carbamoyl)-1H-pyrazole-3-sulfonamide], the IC50 is < 640 nM in assay [1] and < 800 nM in assay [2].

Regarding `CC(C)(C#N)n1ccc(S(=O)(=O)NC(=O)Nc2c3c(cc4c2CCC4)CCC3)n1` [Example 33, 1-(2-Cyanopropan-2-yl)-N-((1,2,3,5,6,7-hexahydro-s-indacen-4-yl)carbamoyl)-1H-pyrazole-3-sulfonamide], the half-maximal inhibitory concentration (IC50) in assay [1] was < 160 nM; in assay [2] it was < 1600 nM.

Turning to `N#CCn1ccc(S(=O)(=O)NC(=O)Nc2c3c(cc4c2CCC4)CCC3)n1` [Example 34, 1-(Cyanomethyl)-N-((1,2,3,5,6,7-hexahydro-s-indacen-4-yl)carbamoyl)-1H-pyrazole-3-sulfonamide], the IC50 in assay [1] was < 640 nM; in assay [2] it was < 3200 nM.

Turning to `O=C(Nc1c2c(cc3c1CCC3)CCC2)NS(=O)(=O)c1ccn(Cc2ncco2)n1` [Example 35, N-((1,2,3,5,6,7-Hexahydro-s-indacen-4-yl)carbamoyl)-1-(oxazol-2-ylmethyl)-1H-pyrazole-3-sulfonamide], the IC50 in assay [1] was < 160 nM; in assay [2] it was < 10000 nM.

With `Cn1ccnc1Cn1ccc(S(=O)(=O)NC(=O)Nc2c3c(cc4c2CCC4)CCC3)n1` [Example 118, N-((1,2,3,5,6,7-Hexahydro-s-indacen-4-yl)carbamoyl)-1-((1-methyl-1H-imidazol-2-yl)methyl)-1H-pyrazole-3-sulfonamide], the IC50 in assay [1] was < 40 nM; in assay [2], < 800 nM.

As for `CN(C)C1(c2cc(S(=O)(=O)NC(=O)Nc3c4c(cc5c3CCC5)CCC4)nn2C)COC1` [Example 122, 5-(3-(Dimethylamino)oxetan-3-yl)-N-((1,2,3,5,6,7-hexahydro-s-indacen-4-yl)carbamoyl)-1-methyl-1H-pyrazole-3-sulfonamide], the IC50 was < 640 nM in assay [1] and < 1600 nM in assay [2].

Take `COCCN(C)Cc1cc(S(=O)(=O)NC(=O)Nc2c3c(cc4c2CCC4)CCC3)nn1C` [Example 126, N-((1,2,3,5,6,7-Hexahydro-s-indacen-4-yl)carbamoyl)-5-(((2-methoxyethyl)(methyl)amino)methyl)-1-methyl-1H-pyrazole-3-sulfonamide, sodium salt]: the IC50 in assay [1] was < 640 nM; in assay [2] it was < 3200 nM.
